Here are results for three compounds from ChEMBL document CHEMBL1158879, “Preparation of 7-Alkoxylated Furanopyrones: Semisynthesis of ()-Etharvensin, a New Styryl-Lactone from Goniothalamus arvensis” (J Nat Prod, 1997).

The subject of experiment [1] is Aorta. Kind of experiment: Inhibition of noradrenaline-induced contractile response in rat aorta at 100 uM in presence of calcium. The class given is functional, tissue-based.
For experiment [2], the system named is Aorta. Nature of the experiment: Inhibition of noradrenaline-induced contractile response in rat aorta in absence of calcium. The class given is functional, tissue-based.

Calls of active or inactive are those of the source. The calls are words filed in the database; no cut-off is given here.

Take `O=C1C=C[C@@H]2O[C@H](c3ccccc3)[C@@H](O)[C@@H]2O1` [ALTHOLACTONE]: in the experiment on Aorta [1], the outcome was inactive. For the same compound, in the experiment on Aorta [2], the half-inhibitory concentration (IC50) came to 78 µM. As to `CCO[C@@H]1CC(=O)O[C@H]2[C@H](O)[C@@H](c3ccccc3)O[C@H]21`, the outcome with Aorta [1] was inactive. Regarding `O=C1CC[C@@H]2O[C@H](c3ccccc3)[C@@H](O)[C@@H]2O1` [GONIOTHARVENSIN], the outcome with Aorta [1] was inactive. Also, the IC50 with Aorta [2] worked out at 80 µM.

For orientation: IC50 means the concentration at which inhibition is half-maximal.
